Test results from ChEMBL document CHEMBL1773037, “Evaluation of superior BACE1 cleavage sequences containing unnatural amino acids” (Bioorg Med Chem, 2011).
Starred links: 1 amine or outer side, 2 acyl side, 3 side chain; linkers in the order of their positions; H or OH if unused. Non-standard residues stand in square brackets, D forms with d. Residues, ends and D or L forms follow the SMILES beside them. X1 = O=C(O)[C@@H]1Cc2ccccc2CN1[C@H](N[*:1])C(=O)[*:2]; 2Thi = N[C@@H](Cc1cccs1)C(=O)O; Cha = N[C@@H](CC1CCCCC1)C(=O)O; Cit = NC(=O)NCCC[C@H](N)C(=O)O; Phg = N[C@H](C(=O)O)c1ccccc1; Tle = CC(C)(C)[C@H](N)C(=O)O; Abu = CC[C@H](N)C(=O)O

These molecules were tested against Beta-secretase 1 (Homo sapiens) (UniProt P56817) (assay: Activity of recombinant BACE assessed as retention time of substrate by HPLC method).
Sequence of Beta-secretase 1 (Homo sapiens) (P56817 whole entry): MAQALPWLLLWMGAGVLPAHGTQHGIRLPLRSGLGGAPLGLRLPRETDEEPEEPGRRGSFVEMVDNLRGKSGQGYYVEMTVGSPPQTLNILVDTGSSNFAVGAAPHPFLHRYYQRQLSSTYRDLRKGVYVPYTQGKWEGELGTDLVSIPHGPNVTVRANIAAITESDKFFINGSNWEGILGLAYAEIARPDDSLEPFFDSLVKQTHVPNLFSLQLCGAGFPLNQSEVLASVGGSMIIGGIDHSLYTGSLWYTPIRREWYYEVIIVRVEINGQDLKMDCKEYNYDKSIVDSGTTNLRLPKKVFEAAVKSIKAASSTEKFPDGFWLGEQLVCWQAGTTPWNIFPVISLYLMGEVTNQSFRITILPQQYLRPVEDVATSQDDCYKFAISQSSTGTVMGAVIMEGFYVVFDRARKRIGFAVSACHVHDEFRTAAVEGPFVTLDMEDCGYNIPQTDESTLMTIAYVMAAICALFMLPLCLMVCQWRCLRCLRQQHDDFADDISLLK

| SMILES | retention time [h] |
| --- | --- |
| CC[C@H](C)[C@H](N)C(=O)N[C@@H](CO)C(=O)N[C@@H](CCC(=O)O)C(=O)N[C@@H](CCC(=O)O)C(=O)N[C@@H](CC(N)=O)C(=O)N[C@@H](CC(C)C)C(=O)N[C@@H](CC(=O)O)C(=O)N[C@@H](C)C(=O)N[C@@H](CCC(=O)O)C(=O)N[C@@H](Cc1ccccc1)C(=O)N[C@@H](CCCNC(=N)N)C(=O)N[C@@H](Cc1cnc[nH]1)C(N)=O (H-ISEENLDAEFRH-NH2) | 0.457 |
| CC[C@H](C)[C@H](N)C(=O)N[C@@H](CO)C(=O)N[C@@H](CCC(=O)O)C(=O)N[C@H](C(=O)N[C@@H](Cc1cccs1)C(=O)N[C@@H](Cc1cccs1)C(=O)O)[C@@H](C)CC (H-ISEI[2Thi][2Thi]-OH) | 0.63 |
| CC[C@H](C)[C@H](N)C(=O)N[C@@H](CO)C(=O)N[C@@H](CCC(=O)O)C(=O)N[C@H](C(=O)N[C@@H](Cc1ccccc1)C(=O)N[C@@H](CC(C)C)C(=O)N[C@@H](CC(=O)O)C(=O)N[C@@H](C)C(=O)N[C@@H](CCC(=O)O)C(=O)N[C@@H](Cc1ccccc1)C(=O)N[C@@H](CCCNC(=N)N)C(=O)N[C@@H](Cc1cnc[nH]1)C(N)=O)C(C)C (H-ISEVFLDAEFRH-NH2) | 0.565 |
| CC[C@H](C)[C@H](N)C(=O)N[C@@H](CO)C(=O)N[C@@H](CCC(=O)O)C(=O)N[C@H](C(=O)N[C@@H](CC(N)=O)C(=O)N[C@@H](CC(C)C)C(=O)N[C@@H](Cc1cccs1)C(=O)N[C@@H](C)C(=O)N[C@@H](CCC(=O)O)C(=O)N[C@@H](Cc1ccccc1)C(=O)N[C@@H](CCCNC(=N)N)C(=O)N[C@@H](Cc1cnc[nH]1)C(N)=O)C(C)C (H-ISEVNL[2Thi]AEFRH-NH2) | 0.656 |
| CC[C@H](C)[C@H](N)C(=O)N[C@@H](CO)C(=O)N[C@@H](CCC(=O)O)C(=O)N[C@H](C(=O)N[C@@H](CC(N)=O)C(=O)N[C@@H](CC(C)C)C(=O)N[C@@H](CC1CCCCC1)C(=O)N[C@@H](C)C(=O)N[C@@H](CCC(=O)O)C(=O)N[C@@H](Cc1ccccc1)C(=O)N[C@@H](CCCNC(=N)N)C(=O)N[C@@H](Cc1cnc[nH]1)C(N)=O)C(C)C (H-ISEVNL[Cha]AEFRH-NH2) | 0.727 |
| CC[C@H](C)[C@H](N)C(=O)N[C@@H](CO)C(=O)N[C@@H](CCC(=O)O)C(=O)N[C@H](C(=O)N[C@@H](CC(N)=O)C(=O)N[C@@H](CC(C)C)C(=O)N[C@H](C(=O)N[C@@H](C)C(=O)N[C@@H](CCC(=O)O)C(=O)N[C@@H](Cc1ccccc1)C(=O)N[C@@H](CCCNC(=N)N)C(=O)N[C@@H](Cc1cnc[nH]1)C(N)=O)c1ccccc1)C(C)C (H-ISEVNL[Phg]AEFRH-NH2) | 0.617 |
| CC[C@H](C)[C@H](N)C(=O)N[C@@H](CO)C(=O)N[C@@H](CCC(=O)O)C(=O)N[C@H](C(=O)N[C@@H](CC(N)=O)C(=O)N[C@@H](CC(C)C)C(=O)N[C@H](C(=O)N[C@@H](C)C(=O)N[C@@H](CCC(=O)O)C(=O)N[C@@H](Cc1ccccc1)C(=O)N[C@@H](CCCNC(=N)N)C(=O)N[C@@H](Cc1cnc[nH]1)C(N)=O)C(C)(C)C)C(C)C (H-ISEVNL[Tle]AEFRH-NH2) | 0.629 |
| CC[C@H](C)[C@H](N)C(=O)N[C@@H](CO)C(=O)N[C@@H](CCC(=O)O)C(=O)N[C@H](C(=O)N[C@@H](CC(N)=O)C(=O)N[C@@H](CC(C)C)C(=O)N[C@H](C(=O)N[C@@H](C)C(=O)N[C@@H](CCC(=O)O)C(=O)N[C@@H](Cc1ccccc1)C(=O)N[C@@H](CCCNC(=N)N)C(=O)N[C@@H](Cc1cnc[nH]1)C(N)=O)N1Cc2ccccc2C[C@H]1C(=O)O)C(C)C (H-ISEVNL[X1]AEFRH-NH2) | 0.648 |
| CC[C@H](C)[C@H](N)C(=O)N[C@@H](CO)C(=O)N[C@@H](CCC(=O)O)C(=O)N[C@H](C(=O)N[C@@H](CC(N)=O)C(=O)N[C@@H](Cc1ccc(O)cc1)C(=O)N[C@@H](CC(=O)O)C(=O)N[C@@H](C)C(=O)N[C@@H](CCC(=O)O)C(=O)N[C@@H](Cc1ccccc1)C(=O)N[C@@H](CCCNC(=N)N)C(=O)N[C@@H](Cc1cnc[nH]1)C(N)=O)C(C)C (H-ISEVNYDAEFRH-NH2) | 0.42 |
| CC[C@H](C)[C@H](N)C(=O)N[C@@H](CO)C(=O)N[C@@H](CCC(=O)O)C(=O)N[C@H](C(=O)N[C@@H](CC(N)=O)C(=O)N[C@H](C(=O)N[C@@H](CC(=O)O)C(=O)N[C@@H](C)C(=O)N[C@@H](CCC(=O)O)C(=O)N[C@@H](Cc1ccccc1)C(=O)N[C@@H](CCCNC(=N)N)C(=O)N[C@@H](Cc1cnc[nH]1)C(N)=O)N1Cc2ccccc2C[C@H]1C(=O)O)C(C)C (H-ISEVN[X1]DAEFRH-NH2) | 0.502 |
| CC[C@H](C)[C@H](N)C(=O)N[C@@H](CO)C(=O)N[C@@H](CCC(=O)O)C(=O)N[C@H](C(=O)N[C@@H](CC1CCCCC1)C(=O)N[C@@H](CC(C)C)C(=O)N[C@@H](CC(=O)O)C(=O)N[C@@H](C)C(=O)N[C@@H](CCC(=O)O)C(=O)N[C@@H](Cc1ccccc1)C(=O)N[C@@H](CCCNC(=N)N)C(=O)N[C@@H](Cc1cnc[nH]1)C(N)=O)C(C)C (H-ISEV[Cha]LDAEFRH-NH2) | 0.616 |

More lines, now with the values ahead:

| retention time [h] | SMILES |
| --- | --- |
| 0.474 | CC[C@H](C)[C@H](N)C(=O)N[C@@H](CO)C(=O)N[C@@H](CC(=O)O)C(=O)N[C@H](C(=O)N[C@@H](CC(N)=O)C(=O)N[C@@H](CC(C)C)C(=O)N[C@@H](CC(=O)O)C(=O)N[C@@H](C)C(=O)N[C@@H](CCC(=O)O)C(=O)N[C@@H](Cc1ccccc1)C(=O)N[C@@H](CCCNC(=N)N)C(=O)N[C@@H](Cc1cnc[nH]1)C(N)=O)C(C)C (H-ISDVNLDAEFRH-NH2) |
| 0.419 | CC[C@H](C)[C@H](N)C(=O)N[C@@H](CO)C(=O)N[C@@H](CCC(=O)O)C(=O)N[C@H](C(=O)N[C@@H](CCCCN)C(=O)N[C@@H](CCSC)C(=O)N[C@@H](CC(=O)O)C(=O)N[C@@H](C)C(=O)N[C@@H](CCC(=O)O)C(=O)N[C@@H](Cc1ccccc1)C(=O)N[C@@H](CCCNC(=N)N)C(=O)N[C@@H](Cc1cnc[nH]1)C(N)=O)C(C)C (H-ISEVKMDAEFRH-NH2) |
| 0.52 | CC[C@H](C)[C@H](N)C(=O)N[C@@H](CO)C(=O)N[C@@H](CCC(=O)O)C(=O)N[C@H](C(=O)N[C@@H](CC(N)=O)C(=O)N[C@@H](CC(C)C)C(=O)N[C@@H](CCC(N)=O)C(=O)N[C@@H](C)C(=O)N[C@@H](CCC(=O)O)C(=O)N[C@@H](Cc1ccccc1)C(=O)N[C@@H](CCCNC(=N)N)C(=O)N[C@@H](Cc1cnc[nH]1)C(N)=O)C(C)C (H-ISEVNLQAEFRH-NH2) |
| 0.536 | CC[C@H](C)[C@H](N)C(=O)N[C@@H](CO)C(=O)N[C@@H](CCC(=O)O)C(=O)N[C@H](C(=O)N[C@@H](CC(N)=O)C(=O)N[C@@H](CC(C)C)C(=O)N[C@@H](CCCNC(N)=O)C(=O)N[C@@H](C)C(=O)N[C@@H](CCC(=O)O)C(=O)N[C@@H](Cc1ccccc1)C(=O)N[C@@H](CCCNC(=N)N)C(=O)N[C@@H](Cc1cnc[nH]1)C(N)=O)C(C)C (H-ISEVNL[Cit]AEFRH-NH2) |
| 0.5 | CC[C@H](NC(=O)[C@@H](NC(=O)[C@H](CCC(=O)O)NC(=O)[C@H](CO)NC(=O)[C@@H](N)[C@@H](C)CC)C(C)C)C(=O)N[C@@H](CC(C)C)C(=O)N[C@@H](CC(=O)O)C(=O)N[C@@H](C)C(=O)N[C@@H](CCC(=O)O)C(=O)N[C@@H](Cc1ccccc1)C(=O)N[C@@H](CCCNC(=N)N)C(=O)N[C@@H](Cc1cnc[nH]1)C(N)=O (H-ISEV[Abu]LDAEFRH-NH2) |
| 0.482 | CC[C@H](C)[C@H](N)C(=O)N[C@@H](CO)C(=O)N[C@@H](CCC(=O)O)C(=O)N[C@H](C(=O)N[C@@H](CCCNC(N)=O)C(=O)N[C@@H](CC(C)C)C(=O)N[C@@H](CC(=O)O)C(=O)N[C@@H](C)C(=O)N[C@@H](CCC(=O)O)C(=O)N[C@@H](Cc1ccccc1)C(=O)N[C@@H](CCCNC(=N)N)C(=O)N[C@@H](Cc1cnc[nH]1)C(N)=O)C(C)C (H-ISEV[Cit]LDAEFRH-NH2) |
